Test results reported in ChEMBL document CHEMBL1121424, “Orally active cephalosporins and penicillins” (J Med Chem, 1980).
In brackets after ≈: the same amount, converted by molar mass.

Assays:
[1] = tested on: Enterobacter cloacae; assay: Tested for inhibition of visible growth of Enterobacter cloacae; format: functional
[2] = tested on: Klebsiella aerogenes; assay: Tested for inhibition of visible growth of Enterobacter aerogenes; format: functional
[3] = tested on: Escherichia coli; assay: Tested for inhibition of visible growth of Escherichia coli; format: functional
[4] = tested on: Escherichia coli; assay: Tested for the antimicrobial activity against Escherichia coli in mice; format: functional
[5] = tested on: Mus musculus; assay: Tested for the antimicrobial activity against […], benzyl-penicillin sensitive in mice, subcutaneously; format: functional; settings: sc
[6] = (§1) Tested for the antimicrobial activity against Salmonella schottmuelleri in mice; format: functional
[7] = as §1; format: functional; remark: listed apart in the source
[8] = tested on: Streptococcus pneumoniae; assay: (§2) Tested for the antimicrobial activity against Streptococcus pneumoniae in mice; format: functional
[9] = tested on: Streptococcus pneumoniae; assay: as §2; format: functional; remark: listed apart in the source
[10] = tested on: Streptococcus pyogenes; assay: (§3) Tested for the antimicrobial activity against Streptococcus pyogenes in mice; format: functional
[11] = tested on: Streptococcus pyogenes; assay: as §3; format: functional; remark: listed apart in the source
[12] = tested on: Proteus mirabilis; assay: Tested for inhibition of visible growth of Proteus mirabilis; format: functional
[13] = Tested for inhibition of visible growth of Salmonella schottmuelleri; format: functional
[14] = tested on: Staphylococcus aureus; assay: Tested for inhibition of visible growth of Staphylococcus aureus, benzyl-penicillin sensitive; format: functional
[15] = tested on: Streptococcus pyogenes; assay: Tested for inhibition of visible growth of Streptococcus pyogenes; format: functional
[16] = tested on: Enterococcus faecalis; assay: Tested for inhibition of visible growth of Streptococcus faecalis; format: functional
[17] = tested on: Streptococcus pneumoniae; assay: Tested for inhibition of visible growth of Streptococcus pneumoniae; format: functional
[18] = tested on: Klebsiella pneumoniae; assay: Tested for inhibition of visible growth of Klebsiella pneumoniae; format: functional
[19] = tested on: Staphylococcus aureus; assay: Tested for inhibition of visible growth of Staphylococcus aureus; format: functional
[20] = species on record: Mus musculus; assay: Tested for the antimicrobial activity against Staphylococcus aureus, benzyl-penicillin sensitive in mice, perorally; settings: po
[21] = Tested for the peak time in mice following 39 mg/kg oral dose of cephalosporin; format: ADME, organism-based; parameters: dose 39 mg/kg, route oral; settings: mouse, in vivo, read-out: Peak time (converted)
[22] = tested on: Staphylococcus aureus; assay: Tested for the antimicrobial activity against Staphylococcus aureus; format: functional
[23] = species on record: Mus musculus; assay: Tested for the antimicrobial activity against Staphylococcus aureus, benzyl-penicillin resistant in mice, perorally; format: functional; settings: po
[24] = tested on: Staphylococcus aureus; assay: Tested for the antimicrobial activity against Staphylococcus aureus, benzyl-penicillin sensitive in mice, perorally; format: functional; settings: po
[25] = species on record: Mus musculus; assay: Tested for the antimicrobial activity against Staphylococcus aureus (M202) in mice, perorally; format: functional; settings: po
[26] = tested on: Mus musculus; assay: Tested for the antimicrobial activity against Staphylococcus aureus (M202) in mice, subcutaneously; format: functional; settings: sc
[27] = species on record: Mus musculus; assay: Tested for the antimicrobial activity against Streptococcus pneumoniae (D137) in mice, perorally; format: functional; settings: po
[28] = tested on: Mus musculus; assay: Tested for the antimicrobial activity against Streptococcus pneumoniae (D137) in mice, subcutaneously; format: functional; settings: sc
[29] = tested on: Mus musculus; assay: Tested for the antimicrobial activity against Streptococcus pneumoniae (D815) in mice, subcutaneously; format: functional; settings: sc
[30] = species on record: Mus musculus; assay: Tested for the antimicrobial activity against Streptococcus pneumoniae (D815) in mice, perorally; format: functional; settings: po
[31] = species on record: Mus musculus; assay: Tested for the antimicrobial activity against Streptococcus pyogenes (ST139) in mice, perorally; format: functional; settings: po
[32] = tested on: Mus musculus; assay: Tested for the antimicrobial activity against Streptococcus pyogenes (ST139) in mice, subcutaneously; format: functional; settings: sc
[33] = species on record: Mus musculus; assay: Tested for the antimicrobial activity against Streptococcus pyogenes (St141) in mice, perorally; format: functional; settings: po
[34] = tested on: Mus musculus; assay: Tested for the antimicrobial activity against Streptococcus pyogenes (St141) in mice, subcutaneously; format: functional; settings: sc
[35] = tested on: Mus musculus; assay: Tested for the antimicrobial activity against Staphylococcus aureus (M240) in mice, subcutaneously; format: functional; settings: sc
[36] = tested on: Pseudomonas aeruginosa; assay: Tested for inhibition of visible growth of Pseudomonas aeruginosa; format: functional
[37] = species on record: Mus musculus; assay: Tested for the antimicrobial activity against Staphylococcus aureus (M240) in mice, perorally; format: functional; settings: po
[38] = tested on: Escherichia coli; assay: Tested for the antimicrobial activity against Escherichia coli in mice perorally; format: functional; settings: po

| SMILES | MIC [1] [µg/mL] | MIC [2] [µg/mL] | MIC [3] [µg/mL] | MIC [12] [µg/mL] | MIC [13] [µg/mL] | MIC [14] [µg/mL] | MIC [15] [µg/mL] | MIC [16] [µg/mL] | MIC [17] [µg/mL] | MIC [18] [µg/mL] | MIC [19] [µg/mL] | ED50 [4] [mg/kg] | ED50 [6] [mg/kg] | ED50 [7] [mg/kg] | ED50 [8] [mg/kg] | ED50 [9] [mg/kg] | ED50 [10] [mg/kg] | ED50 [11] [mg/kg] | ED50 [22] [mg/kg] | ED50 [24] [mg/kg] | other results |
| --- | --- | --- | --- | --- | --- | --- | --- | --- | --- | --- | --- | --- | --- | --- | --- | --- | --- | --- | --- | --- | --- |
| CC1=C(C(=O)O)N2C(=O)C(NC(=O)[C@H](N)c3ccc4c(c3)CCO4)C2SC1 (stereo partly drawn) | > 100 | > 100 | 50 (≈ 128 µM) | > 100 | 12.5 (≈ 32.1 µM) | 0.4 (≈ 1.03 µM) | 0.2 (≈ 0.514 µM) | > 100 | 0.4 (≈ 1.03 µM) | 25 (≈ 64.2 µM) | 1.6 (≈ 4.11 µM) |  |  |  | 8.6 | 10 | 0.37 | 0.34 | 0.63 | 0.67 | Tmax [21]: 10 min; ED50 [23]: 7 mg/kg |
| CC1(C)SC2C(NC(=O)[C@H](N)c3ccc4c(c3)CCO4)C(=O)N2C1C(=O)O (stereo partly drawn) | > 100 | > 100 | 25 (≈ 63.9 µM) | 12.5 (≈ 31.9 µM) | 1.6 (≈ 4.09 µM) | 0.05 (≈ 0.128 µM) | ≤ 0.03 | 3.1 (≈ 7.92 µM) | ≤ 0.03 | 6.2 (≈ 15.8 µM) | 100 (≈ 255 µM) |  |  |  |  |  |  |  |  |  | ED50 [25]: 0.41 mg/kg; ED50 [26]: 0.89 mg/kg; ED50 [27]: 0.22 mg/kg; ED50 [28]: 0.14 mg/kg; ED50 [29]: 0.078 mg/kg; ED50 [30]: 0.16 mg/kg; ED50 [31]: 0.084 mg/kg; ED50 [32]: 0.053 mg/kg; ED50 [33]: 0.11 mg/kg; ED50 [34]: 0.07 mg/kg; ED50 [35]: 0.063 mg/kg; MIC [36]: > 100 µg/mL; ED50 [37]: 0.4 mg/kg |
| CC1(C)SC2C(NC(=O)C(N)c3ccc4c(c3)OCO4)C(=O)N2C1C(=O)O (stereo not drawn) | > 100 | > 100 | 25 (≈ 63.5 µM) | 25 (≈ 63.5 µM) | 1.6 (≈ 4.07 µM) | 0.1 (≈ 0.254 µM) | ≤ 0.03 | 3.1 (≈ 7.88 µM) | ≤ 0.03 | 6.2 (≈ 15.8 µM) | 100 (≈ 254 µM) |  |  |  |  |  |  |  |  |  | ED50 [25]: 0.25 mg/kg; ED50 [26]: 0.53 mg/kg; ED50 [27]: 0.35 mg/kg; ED50 [28]: 0.16 mg/kg; ED50 [29]: 0.078 mg/kg; ED50 [30]: 0.25 mg/kg; ED50 [31]: 0.29 mg/kg; ED50 [32]: 0.06 mg/kg; ED50 [33]: 0.22 mg/kg; ED50 [34]: 0.13 mg/kg; ED50 [35]: < 0.063 mg/kg; MIC [36]: > 100 µg/mL; ED50 [37]: 0.32 mg/kg |

Now from value to molecule, other results behind:

| MIC [1] [µg/mL] | MIC [2] [µg/mL] | MIC [3] [µg/mL] | MIC [12] [µg/mL] | MIC [13] [µg/mL] | MIC [14] [µg/mL] | MIC [15] [µg/mL] | MIC [16] [µg/mL] | MIC [17] [µg/mL] | MIC [18] [µg/mL] | MIC [19] [µg/mL] | SMILES | ED50 [4] [mg/kg] | ED50 [6] [mg/kg] | ED50 [7] [mg/kg] | ED50 [8] [mg/kg] | ED50 [9] [mg/kg] | ED50 [10] [mg/kg] | ED50 [11] [mg/kg] | ED50 [22] [mg/kg] | ED50 [24] [mg/kg] | other results |
| --- | --- | --- | --- | --- | --- | --- | --- | --- | --- | --- | --- | --- | --- | --- | --- | --- | --- | --- | --- | --- | --- |
| 6.2 (≈ 12.3 µM) | 3.1 (≈ 6.13 µM) | 3.1 (≈ 6.13 µM) | 25 (≈ 49.5 µM) | 0.8 (≈ 1.58 µM) | 0.2 (≈ 0.396 µM) | 0.05 (≈ 0.0989 µM) | 50 (≈ 98.9 µM) | 0.1 (≈ 0.198 µM) | 3.1 (≈ 6.13 µM) | 1.6 (≈ 3.16 µM) | Cn1nnnc1SCC1=C(C(=O)O)N2C(=O)C(NC(=O)[C@H](N)c3ccc4c(c3)OCO4)C2SC1 (stereo partly drawn) | 2.1 | 16 | < 3.1 | > 10 | 0.74 | 0.37 | 0.14 |  |  | ED50 [5]: 0.31 mg/kg; ED50 [20]: > 2 mg/kg |
| > 100 | 25 (≈ 48.1 µM) | 12.5 (≈ 24.1 µM) | > 100 | 6.2 (≈ 11.9 µM) | 0.8 (≈ 1.54 µM) | 0.05 (≈ 0.0962 µM) | 100 (≈ 192 µM) | ≤ 0.03 | 6.2 (≈ 11.9 µM) | 3.1 (≈ 5.97 µM) | Cc1nnc(SCC2=C(C(=O)O)N3C(=O)C(NC(=O)[C@H](N)c4ccc5c(c4)CCO5)C3SC2)s1 (stereo partly drawn) | 9.3 | 31 | 23 | 1.6 | 0.89 | 0.78 | 0.44 | 0.88 | 1.8 | ED50 [38]: 20 mg/kg |
